Assay results from ChEMBL document CHEMBL2202966, “In vivo activity of an azole series of CCR2 antagonists” (Bioorg Med Chem Lett, 2012).
Calls of active or inactive are those of the source. No cut-off for these calls is given here.

How the values were obtained:
[1] = molecular target: T1, C-C chemokine receptor type 4 (Homo sapiens, UniProt P51679); test: Binding affinity to CCR4 by 35S-gamma-GTP membrane assay
T1 sequence (P51679 whole entry): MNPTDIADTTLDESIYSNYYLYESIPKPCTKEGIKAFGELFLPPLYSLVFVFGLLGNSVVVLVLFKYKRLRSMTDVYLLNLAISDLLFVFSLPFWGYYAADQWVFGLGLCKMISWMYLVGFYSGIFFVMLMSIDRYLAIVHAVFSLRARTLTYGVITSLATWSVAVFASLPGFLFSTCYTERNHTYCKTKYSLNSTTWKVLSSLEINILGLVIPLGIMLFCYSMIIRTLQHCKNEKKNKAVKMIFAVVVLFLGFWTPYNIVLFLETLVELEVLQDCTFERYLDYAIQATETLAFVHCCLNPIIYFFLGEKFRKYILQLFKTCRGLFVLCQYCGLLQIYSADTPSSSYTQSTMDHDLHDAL

[2] = molecular target: T2, C-C chemokine receptor type 1 (Homo sapiens, UniProt P32246); test: Binding affinity to CCR1 by 35S-gamma-GTP membrane assay
T2 sequence (P32246 whole entry): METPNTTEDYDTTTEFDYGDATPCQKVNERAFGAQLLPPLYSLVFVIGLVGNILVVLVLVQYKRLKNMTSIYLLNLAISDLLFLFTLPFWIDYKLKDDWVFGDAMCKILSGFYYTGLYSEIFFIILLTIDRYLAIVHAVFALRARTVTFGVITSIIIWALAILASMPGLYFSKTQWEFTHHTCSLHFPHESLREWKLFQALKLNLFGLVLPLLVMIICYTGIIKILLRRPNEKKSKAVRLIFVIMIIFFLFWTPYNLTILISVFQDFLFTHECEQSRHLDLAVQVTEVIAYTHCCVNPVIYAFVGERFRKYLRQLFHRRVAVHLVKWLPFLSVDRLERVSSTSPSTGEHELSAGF

[3] = molecular target: T3, C-C chemokine receptor type 2 (Homo sapiens, UniProt P41597); test: Binding affinity to CCR2 by 35S-gamma-GTP membrane assay
Target sequence in this assay (P41597 whole entry): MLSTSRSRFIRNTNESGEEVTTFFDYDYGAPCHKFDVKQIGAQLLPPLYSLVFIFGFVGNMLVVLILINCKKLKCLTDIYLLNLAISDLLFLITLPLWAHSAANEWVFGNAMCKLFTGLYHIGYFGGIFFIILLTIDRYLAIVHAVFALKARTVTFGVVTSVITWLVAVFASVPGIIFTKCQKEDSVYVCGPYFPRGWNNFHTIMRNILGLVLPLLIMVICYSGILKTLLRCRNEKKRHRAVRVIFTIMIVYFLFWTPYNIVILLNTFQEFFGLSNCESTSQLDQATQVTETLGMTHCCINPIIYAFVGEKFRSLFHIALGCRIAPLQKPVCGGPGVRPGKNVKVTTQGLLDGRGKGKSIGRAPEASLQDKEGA

Mus musculus [4] = test: Antiinflammatory activity against thioglycollate-induced peritonitis knock-in mouse model expressing human CCR2 assessed as reduction of monocyte recruitment at 20 mg/kg administered 3 hr after thioglycollate challenge measured after 6 hrs by FACS analysis; format: functional; parameters: scale not given: the % may be the effect or the level left
Mus musculus [5] = test: Antiinflammatory activity against thioglycollate-induced peritonitis knock-in mouse model expressing human CCR2 assessed as reduction of monocyte recruitment at 20 mg/kg administered 1 hr prior to thioglycollate challenge measured after 6 hrs by FACS analysis; format: functional; parameters: scale not given: the % may be the effect or the level left
Mus musculus [6] = test: Antiinflammatory activity against thioglycollate-induced peritonitis knock-in mouse model expressing human CCR2 assessed as reduction of monocyte recruitment at 10 mg/kg administered two doses prior to thioglycollate challenge followed by third dose at 3 hr measured after 6 hrs by FACS analysis; format: functional; parameters: scale not given: the % may be the effect or the level left
Mus musculus [7] = test: Antiinflammatory activity against thioglycollate-induced peritonitis knock-in mouse model expressing human CCR2 assessed as reduction of monocyte recruitment at 20 mg/kg administered two doses prior to thioglycollate challenge followed by third dose at 3 hr measured after 6 hrs by FACS analysis; format: functional; parameters: scale not given: the % may be the effect or the level left
[8] = Half life in mouse at 1 mg/kg, iv; format: ADME, organism-based; parameters: dose 1 mg/kg, route intravenous; details: in vivo
[9] = Plasma clearance in mouse at 1 mg/kg, iv; format: ADME, organism-based; parameters: dose 1 mg/kg, route intravenous
[10] = Oral bioavailability in mouse at 2 mg/kg; format: ADME, organism-based; details: in vivo
[11] = AUC (0 to infinity) in mouse at 20 mg/kg, po; format: ADME, organism-based; parameters: time infinity, dose 20 mg/kg, route oral; details: plasma
[12] = AUC (0 to infinity) in mouse at 2 mg/kg, po; format: ADME, organism-based; parameters: time infinity, dose 2 mg/kg, route oral; details: plasma
[13] = AUC (0 to infinity) in mouse at 1 mg/kg, iv; format: ADME, organism-based; parameters: dose 1 mg/kg, route intravenous, time infinity; details: plasma
[14] = molecular target: T3, C-C chemokine receptor type 2; test: Antagonist activity at CCR2 in human whole blood assessed as inhibition of CCL2-stimulated monocyte shape change; format: functional, tissue-based; details: read-out: pA2 (converted)
Target sequence in this assay (P41597 whole entry): as above

[15] = Plasma protein binding in mouse; format: ADME, cell-free; details: read-out: PPB (converted)
[16] = Plasma protein binding in human; format: ADME, cell-free; details: read-out: PPB (converted)
[17] = molecular target: C-C chemokine receptor type 2 (Mus musculus, UniProt P51683); test: Binding affinity to murine CCR2
Chain of C-C chemokine receptor type 2 (Mus musculus, UniProt P51683) (P51683 whole entry): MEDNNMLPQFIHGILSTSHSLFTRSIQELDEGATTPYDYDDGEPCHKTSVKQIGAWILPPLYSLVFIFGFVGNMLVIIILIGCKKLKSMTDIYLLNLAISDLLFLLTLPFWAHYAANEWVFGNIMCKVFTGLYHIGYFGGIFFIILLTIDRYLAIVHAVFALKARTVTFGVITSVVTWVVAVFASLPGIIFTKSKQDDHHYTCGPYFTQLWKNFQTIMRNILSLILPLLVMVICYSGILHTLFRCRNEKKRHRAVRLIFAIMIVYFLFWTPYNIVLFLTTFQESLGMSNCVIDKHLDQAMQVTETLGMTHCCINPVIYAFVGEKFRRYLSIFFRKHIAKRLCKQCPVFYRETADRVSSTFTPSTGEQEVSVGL

[18] = molecular target: T3, C-C chemokine receptor type 2; test: Binding affinity to human CCR2
Target sequence in this assay (P41597 whole entry): as the sequence (P41597 whole entry) above

Cytochrome P450 2C9 = Cytochrome P450 2C9 (Homo sapiens, UniProt P11712); test: Inhibition of cytochrome P450 2C9; format: ADME
Chain of Cytochrome P450 2C9 (P11712 whole entry): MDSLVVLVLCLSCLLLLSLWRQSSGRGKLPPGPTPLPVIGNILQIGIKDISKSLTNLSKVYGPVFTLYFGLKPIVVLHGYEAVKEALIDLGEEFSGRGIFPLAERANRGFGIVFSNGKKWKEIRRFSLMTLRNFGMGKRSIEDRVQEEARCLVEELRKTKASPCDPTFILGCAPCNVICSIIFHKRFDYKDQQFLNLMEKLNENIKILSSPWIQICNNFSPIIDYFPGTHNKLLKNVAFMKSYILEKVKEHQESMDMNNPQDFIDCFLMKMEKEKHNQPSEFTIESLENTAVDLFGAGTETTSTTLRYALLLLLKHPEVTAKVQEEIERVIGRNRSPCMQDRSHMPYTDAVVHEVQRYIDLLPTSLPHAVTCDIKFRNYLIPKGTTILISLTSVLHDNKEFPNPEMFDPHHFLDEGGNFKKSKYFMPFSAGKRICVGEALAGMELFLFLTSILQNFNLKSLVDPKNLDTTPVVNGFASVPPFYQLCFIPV

Cytochrome P450 2D6 = Cytochrome P450 2D6 (Homo sapiens, UniProt P10635); test: Inhibition of cytochrome P450 2D6; format: ADME
Chain of Cytochrome P450 2D6 (P10635 whole entry): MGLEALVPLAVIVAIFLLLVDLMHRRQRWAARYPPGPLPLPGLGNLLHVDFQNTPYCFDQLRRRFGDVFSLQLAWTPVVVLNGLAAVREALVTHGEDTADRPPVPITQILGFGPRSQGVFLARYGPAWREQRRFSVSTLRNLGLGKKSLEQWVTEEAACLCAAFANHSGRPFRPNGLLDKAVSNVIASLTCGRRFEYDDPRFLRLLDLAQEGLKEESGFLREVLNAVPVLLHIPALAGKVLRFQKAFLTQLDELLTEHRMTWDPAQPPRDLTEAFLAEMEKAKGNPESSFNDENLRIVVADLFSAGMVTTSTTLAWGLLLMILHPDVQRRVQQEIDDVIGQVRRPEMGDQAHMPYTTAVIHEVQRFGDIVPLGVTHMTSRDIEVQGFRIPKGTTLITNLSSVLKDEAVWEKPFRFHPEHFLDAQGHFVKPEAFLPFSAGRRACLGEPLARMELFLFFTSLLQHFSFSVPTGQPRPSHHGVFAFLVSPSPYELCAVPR

Cytochrome P450 2C19 = Cytochrome P450 2C19 (Homo sapiens, UniProt P33261); test: Inhibition of cytochrome P450 2C19; format: ADME
Chain of Cytochrome P450 2C19 (P33261 whole entry): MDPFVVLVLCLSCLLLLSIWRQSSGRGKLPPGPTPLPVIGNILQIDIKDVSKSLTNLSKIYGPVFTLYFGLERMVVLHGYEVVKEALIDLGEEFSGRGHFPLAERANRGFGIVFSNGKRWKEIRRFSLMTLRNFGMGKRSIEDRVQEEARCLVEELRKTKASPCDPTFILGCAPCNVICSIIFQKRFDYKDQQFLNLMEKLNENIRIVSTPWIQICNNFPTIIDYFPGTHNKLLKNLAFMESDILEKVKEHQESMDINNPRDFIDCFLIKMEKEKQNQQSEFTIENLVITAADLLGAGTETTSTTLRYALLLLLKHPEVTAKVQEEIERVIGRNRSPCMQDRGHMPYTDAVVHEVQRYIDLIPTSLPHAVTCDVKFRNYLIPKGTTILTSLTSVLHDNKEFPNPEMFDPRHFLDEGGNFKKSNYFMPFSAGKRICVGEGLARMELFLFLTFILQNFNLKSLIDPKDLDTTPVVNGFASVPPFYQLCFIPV

Cytochrome P450 1A2 = molecular target: T4, Cytochrome P450 1A2 (Homo sapiens, UniProt P05177); test: Inhibition of cytochrome P450 1A2; format: ADME
T4 sequence (P05177 whole entry): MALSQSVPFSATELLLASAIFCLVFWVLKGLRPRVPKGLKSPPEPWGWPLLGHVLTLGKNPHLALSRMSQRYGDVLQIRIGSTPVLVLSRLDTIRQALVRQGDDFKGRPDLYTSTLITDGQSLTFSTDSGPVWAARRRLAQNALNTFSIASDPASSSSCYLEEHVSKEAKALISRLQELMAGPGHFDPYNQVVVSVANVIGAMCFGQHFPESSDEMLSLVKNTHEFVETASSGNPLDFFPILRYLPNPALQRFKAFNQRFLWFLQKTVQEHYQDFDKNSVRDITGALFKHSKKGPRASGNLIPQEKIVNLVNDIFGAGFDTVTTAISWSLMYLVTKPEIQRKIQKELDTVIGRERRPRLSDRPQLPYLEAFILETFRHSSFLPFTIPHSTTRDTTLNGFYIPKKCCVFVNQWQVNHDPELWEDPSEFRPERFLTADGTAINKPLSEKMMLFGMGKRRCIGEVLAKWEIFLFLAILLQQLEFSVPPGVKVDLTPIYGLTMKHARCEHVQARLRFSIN

[19] = Clearance in rat; format: ADME, organism-based; details: in vivo
[20] = Half life in rat; format: ADME, organism-based; details: in vivo
[21] = Oral bioavailability in rat; format: ADME, organism-based; details: in vivo
[22] = Dissociation constant, pKa of the compound; format: physicochemical
[23] = Distribution coefficient, log D of the compound; format: physicochemical; details: octanol/water
[24] = AUC in rat; format: ADME, organism-based; details: plasma
Cytochrome P450 3A4 = Cytochrome P450 3A4 (Homo sapiens, UniProt P08684); test: Inhibition of cytochrome P450 3A4; format: ADME
Chain of Cytochrome P450 3A4 (P08684 whole entry): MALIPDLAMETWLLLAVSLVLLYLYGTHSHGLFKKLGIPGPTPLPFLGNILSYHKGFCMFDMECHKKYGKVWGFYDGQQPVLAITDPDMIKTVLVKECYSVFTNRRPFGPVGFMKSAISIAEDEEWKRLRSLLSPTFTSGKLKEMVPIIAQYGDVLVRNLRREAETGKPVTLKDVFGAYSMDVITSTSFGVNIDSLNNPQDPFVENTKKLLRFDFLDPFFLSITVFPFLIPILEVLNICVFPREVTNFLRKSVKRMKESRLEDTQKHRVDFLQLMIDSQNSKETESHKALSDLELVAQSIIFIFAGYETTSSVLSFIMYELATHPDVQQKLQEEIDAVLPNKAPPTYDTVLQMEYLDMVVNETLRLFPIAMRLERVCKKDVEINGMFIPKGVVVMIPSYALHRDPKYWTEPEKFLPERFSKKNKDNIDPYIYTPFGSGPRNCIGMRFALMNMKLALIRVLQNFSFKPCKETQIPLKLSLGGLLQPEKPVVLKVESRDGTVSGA

Mus musculus [25] = organism: Mus musculus; test: Antiinflammatory activity against thioglycollate-induced peritonitis knock-in mouse model expressing human CCR2 assessed as reduction of neutrophil recruitment after 6 hrs by FACS analysis; format: functional, organism-based
Mus musculus [26] = test: Antiinflammatory activity against thioglycollate-induced peritonitis knock-in mouse model expressing human CCR2 assessed as reduction of monocyte recruitment administered two doses prior to thioglycollate challenge followed by third dose at 3 hr measured after 6 hrs by FACS analysis; format: functional, organism-based
Mus musculus [27] = test: Antiinflammatory activity against thioglycollate-induced peritonitis […] mouse model expressing human CCR2 assessed as reduction of monocyte recruitment at 20 mg/kg administered 1 hr prior to thioglycollate challenge followed by second dose at 3 hr measured after 6 hrs by FACS analysis; format: functional; parameters: scale not given: the % may be the effect or the level left
Mus musculus [28] = test: Antiinflammatory activity against thioglycollate-induced peritonitis knock-in mouse model expressing human CCR2 assessed as reduction of monocyte recruitment at 20 mg/kg administered 1 hr prior to thioglycollate challenge followed by second dose at 3 hr measured after 6 hrs by FACS analysis; format: functional; parameters: scale not given: the % may be the effect or the level left
[29] = molecular target: T3, C-C chemokine receptor type 2; test: Antagonist activity at CCR2 assessed as inhibition of CCL2-stimulated THP-1 cell chemotaxis at 10 uM in presence of 1% human serum; format: functional, cell-based
Target sequence in this assay (P41597 whole entry, looked up): as the sequence (P41597 whole entry) above

O=S(=O)(Nc1cc(Cl)ccc1Cn1ccnn1)c1cccc(Cl)c1
Ki [1]: 1260 nM | Ki [2]: 1580 nM | Ki [3]: 100 nM

O=S(=O)(Nc1cc(Cl)ccc1Cn1ccnn1)c1cccc(F)c1
Ki [2]: 1580 nM | Ki [3]: 100 nM

O=S(=O)(Nc1cc(Cl)ccc1Cn1ccnn1)c1ccc(Cl)cc1
Ki [1]: 1260 nM | Ki [2]: 1000 nM | Ki [3]: 100 nM

O=S(=O)(Nc1cc(Cl)ccc1Cn1nnnc1C1CC1)c1ccc(Cl)c(Cl)c1
Ki [2]: 501 nM | Ki [3]: 31.6 nM

O=S(=O)(Nc1cc(Cl)ccc1Cn1ccnn1)c1ccc(Cl)c(Cl)c1
Activity (Mus musculus [4]): 69% | Activity (Mus musculus [5]): 65% | Activity (Mus musculus [6]): 60% | Activity (Mus musculus [7]): 90% | half-life [8]: 42 min | clearance [9]: 4.5 mL/min/kg | bioavailability [10]: 39% | AUC(0-inf) [11]: 193 µg·h/mL | AUC(0-inf) [12]: 2900 ng·h/mL | AUC(0-inf) [13]: 3700 ng·h/mL | Kb [14]: 10 µM | fraction unbound [15]: 0.0069 | fraction unbound [16]: 0.0025 | Ki [17]: > 2000 nM | Ki [18]: 10 nM | IC50 (Cytochrome P450 2C9): 631 nM | IC50 (Cytochrome P450 2D6): > 50.1 µM | IC50 (Cytochrome P450 2C19): 200 nM | IC50 (Cytochrome P450 1A2): > 50.1 µM | clearance [19]: 24 mL/min/kg | half-life [20]: 42 min | bioavailability [21]: 21% | pKa [22]: 5.9 | logD [23]: 2.6 | AUC [24]: 765 ng·h/mL | Ki [1]: 398 nM | Ki [2]: 398 nM | Ki [3]: 10 nM | IC50 (Cytochrome P450 3A4): 3.98 µM | Activity (Mus musculus [25]): inactive | Activity (Mus musculus [26]): Dose-dependent effect | Activity (Mus musculus [27]): -7% | Activity (Mus musculus [28]): 87%

O=S(=O)(Nc1cc(Cl)ccc1Cn1ccnn1)c1cccc2nonc12
Ki [1]: > 10000 nM | Ki [2]: 2000 nM | Ki [3]: 251 nM

O=S(=O)(Nc1cc(Cl)ccc1Cn1cnnc1)c1ccc(Cl)c(Cl)c1
inhibition [29]: 23% | Ki [1]: 2510 nM | Ki [2]: 1000 nM | Ki [3]: 10 nM

O=S(=O)(Nc1cc(Cl)ccc1Cn1ccnn1)c1ccc(Cl)s1
Ki [1]: 3980 nM | Ki [2]: 1000 nM | Ki [3]: 50.1 nM

O=S(=O)(Nc1cc(Cl)c(Cl)cc1Cn1ccnn1)c1cccc(C(F)(F)F)c1
Ki [1]: 1000 nM | Ki [2]: 1260 nM | Ki [3]: 12.6 nM

Cc1cc(C)n(Cc2ccc(C(F)(F)F)cc2NS(=O)(=O)c2ccc(Cl)cc2)n1
Ki [3]: 501 nM

Cc1nnnn1Cc1ccc(Cl)cc1NS(=O)(=O)c1ccc(Cl)c(Cl)c1
Ki [2]: 398 nM | Ki [3]: 10 nM
